Source: patent US6906094B2, “1,2,4-tribsubstituted benzenes as inhibitors of 15-lipoxygenase” (Warner-Lambert Company, priority 2000, dated 2005)

Assays:
[1] = target: T1, rabbit reticulocyte 15-LO (Oryctolagus cuniculus, UniProt P12530); experiment: Rabbit Reticulocyte 15-LO Assay (H15LO); format: biochemical; details: 2 U rabbit reticulocyte 15-LO, 174 μM linoleic acid, 15 minutes at 4° C., 13-HODE quantitated
T1 construct: 15-LO is obtained from phenylhydrazine-treated rabbits and purified according to the method of Rapoport; from tissue; host or cells: reticulocytes of phenylhydrazine-treated rabbits
T1 sequence (P12530 1-663): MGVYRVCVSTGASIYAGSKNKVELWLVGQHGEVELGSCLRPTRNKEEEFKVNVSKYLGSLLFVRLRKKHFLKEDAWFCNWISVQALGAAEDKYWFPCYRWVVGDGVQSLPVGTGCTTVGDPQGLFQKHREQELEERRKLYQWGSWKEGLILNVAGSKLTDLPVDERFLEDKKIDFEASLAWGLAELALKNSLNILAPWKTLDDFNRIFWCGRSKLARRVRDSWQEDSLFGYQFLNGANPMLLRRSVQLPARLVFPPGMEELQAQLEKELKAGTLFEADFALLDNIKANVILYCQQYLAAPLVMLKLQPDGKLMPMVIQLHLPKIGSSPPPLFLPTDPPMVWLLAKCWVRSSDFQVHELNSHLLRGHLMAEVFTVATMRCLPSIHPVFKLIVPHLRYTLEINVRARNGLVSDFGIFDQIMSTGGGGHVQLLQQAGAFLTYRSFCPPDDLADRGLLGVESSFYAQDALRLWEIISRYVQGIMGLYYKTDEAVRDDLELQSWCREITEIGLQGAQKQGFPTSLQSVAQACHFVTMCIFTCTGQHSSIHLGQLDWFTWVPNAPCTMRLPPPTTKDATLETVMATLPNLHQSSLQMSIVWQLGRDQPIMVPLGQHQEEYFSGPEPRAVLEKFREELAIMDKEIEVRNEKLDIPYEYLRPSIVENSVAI
Experimental: In the H15LO assay, a test compound was incubated with 15-LO enzyme in the presence of the linoleic acid substrate. For example, 2 units (U) of rabbit reticulocyte 15-LO and 174 μM linoleic acid were incubated with a known amount of a test compound of the present invention for 15 minutes at 4° C. The total reaction volume was 100 μL in phosphate buffer saline (PBS) containing 0.2% sodium cholate. The reaction was stopped with 100 μL of mobile phase and […] of triethyl phosphite. […] 13-HODE was quantitated by comparing peak areas of individual samples with those from a standard curve generated using authentic 13-HODE.
15-LO is obtained from phenylhydrazine-treated rabbits and purified according to the method of Rapoport (Rapoport et al., European Journal of Biochemistry, 1979;96:545-561).

human 15-LO = target: T2, human 15-LO (Homo sapiens, UniProt P16050); experiment: Human Lysate 15-LO Assay (HUM15LO); format: biochemical; details: recombinant human 15-LO, 174 μM linoleic acid, 15 minutes at 4° C., 13-HODE quantitated
T2 construct: made in house; host or cells: Sf9 insect cells (baculovirus, Bac-to-Bac)
T2 sequence (P16050 1-662): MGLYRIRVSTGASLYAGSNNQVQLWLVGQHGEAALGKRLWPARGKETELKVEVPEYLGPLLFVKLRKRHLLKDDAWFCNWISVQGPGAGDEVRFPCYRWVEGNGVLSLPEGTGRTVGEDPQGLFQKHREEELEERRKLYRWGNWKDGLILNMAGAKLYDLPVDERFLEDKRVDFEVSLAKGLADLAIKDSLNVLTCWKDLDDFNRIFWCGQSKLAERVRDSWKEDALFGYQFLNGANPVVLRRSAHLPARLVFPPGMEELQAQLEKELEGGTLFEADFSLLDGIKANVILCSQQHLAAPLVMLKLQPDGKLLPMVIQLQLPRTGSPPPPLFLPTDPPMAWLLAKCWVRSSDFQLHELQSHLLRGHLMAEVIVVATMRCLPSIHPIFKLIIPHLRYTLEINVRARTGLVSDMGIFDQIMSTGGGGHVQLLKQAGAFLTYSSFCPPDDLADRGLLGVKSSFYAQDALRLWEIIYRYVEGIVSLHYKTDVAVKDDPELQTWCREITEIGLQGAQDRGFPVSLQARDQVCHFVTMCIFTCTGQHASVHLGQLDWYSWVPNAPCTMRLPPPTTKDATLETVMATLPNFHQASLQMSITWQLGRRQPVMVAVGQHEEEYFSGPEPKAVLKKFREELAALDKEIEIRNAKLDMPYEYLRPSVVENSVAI
Experimental: In the HUM15LO assay, a test compound of the present invention was incubated with 15-LO enzyme in the presence of the linoleic acid substrate. For example, a known amount of a test compound of the present invention, 100 μL of human 15-LO, and 174 μM linoleic acid in PBS containing 0.2% sodium cholate were incubated for 15 minutes at 4° C. The reaction was stopped with 100 μL of mobile phase and 10 μL of triethyl phosphite. […] 13-HODE was quantitated by comparing peak areas of individual samples with those from a standard curve generated using authentic 13-HODE. The test reaction is compared to a control reaction, which is identical to the test reaction except no test compound of the present invention is present Percent inhibition is calculated as the amount of 13-HODE produced by the test reaction divided by the amount of 13-HODE produced by the control reaction, expressed as a percent.
Human 15-LO was generated in a recombinant 15-lipoxygenase bacculovirus expression system, using Gibco/BRL/Life Technologies' Bac-to-Bac expression reagents; T4 DNA ligase, Kanamycin, Gentamicin, tetracycline, penicillin, streptomycin, Bluo-gal, IPTG, DH10Bac competent cells, SOC, LB medium, Sf-900 II SFM media, Sf9 insect cells, Cell Fectin, and EcoRI, BamHI and KpnI restriction enzymes.

Row | SMILES | melting point | IC50 [1] | IC50 (human 15-LO)
1 | COc1ccc(-c2cc3cc(F)c(F)cc3[nH]2)cc1NS(=O)(=O)NC(=O)OCCOC(C)C (hydrate or solvate) [Example 34, Carbamic Acid, [[[5-(5,6-difluoro-IH-indol-2-yl)-2-methoxyphenyl]amino]-sulfonyl]-2(1-methylethoxy)ethyl Ester] | 158 to 163 °C |  | 
2 | COc1ccc(C(=O)Nc2ccc(F)c(F)c2)cc1NS(=O)(=O)NC(=O)OCCCc1ccncc1 (hydrate or solvate) [Example 39, Carbamic Acid, [[[5-[[(3,4-difluorophenyl)amino]carbonyl]-2-methoxyphenyl]amino]sulfonyl]-, 3-(4-pyridinyl)propyl ester] | 160 to 164 °C |  | 
3 | COc1ccc(-c2cc3cc(F)c(F)cc3[nH]2)cc1NS(=O)(=O)NC(=O)OCCc1ccccc1 (hydrate or solvate) [Example 40, Carbamic Acid, [[[5-(5,6-difluoro-IH-indol-2-yl)-2-methoxyphenyl]amino]-sulfonyl]-2-phenylethyl ester] | 180 to 182 °C |  | 
4 | COc1ccc(C(=O)Nc2ccc(F)c(F)c2)cc1NS(=O)(=O)NC(=O)OCCc1ccccc1 (hydrate or solvate) [Example 41] | 173 to 177 °C |  | 
5 | COc1ccc(-c2cc3cc(F)c(F)cc3[nH]2)cc1NS(=O)(=O)NC(=O)Nc1ccc(C)cc1 [Example 28, Urea, N-[[[5-(5,6-difluoro-IH-indol-2-yl)-2-methoxyphenyl]amino]sulfonyl]-N′-(4-methylphenyl)] |  | 0.039 µM | 0.018 µM
6 | COC(=O)NS(=O)(=O)Nc1cc(-c2cc3cc(F)c(F)cc3[nH]2)ccc1OC [Example 29, Carbamic Acid, [[[5-(5,6-difluoro-IH-indol-2-yl)-2-methoxyphenyl]amino]-sulfonyl]-methyl ester] |  | 0.047 µM | 0.085 µM
7 | COc1ccc(-c2cc3cc(F)c(F)cc3[nH]2)cc1NS(=O)(=O)NC(=O)OCCOC(C)C [Example 34, Carbamic Acid, [[[5-(5,6-difluoro-IH-indol-2-yl)-2-methoxyphenyl]amino]-sulfonyl]-2(1-methylethoxy)ethyl Ester] |  | 0.026 µM | 0.03 µM
8 | CNS(=O)(=O)Nc1cc(-c2cc3cc(F)c(F)cc3[nH]2)ccc1OC [Example 37, Sulfamide, N-[5-(5,6-diflouo-IH-indo-2-yl)-2-methoxyphenyl]-N′-methyl] |  | 0.005 µM | 0.007 µM
9 | COc1ccc(-c2cc3cc(F)c(F)cc3[nH]2)cc1NS(=O)(=O)NC(=O)OCCCO [Example 45, Carbamic acid, [[[5-(5,6-difluoro-IH-indol-2-yl)-2-methoxyphenyl]amino]-sulfonyl]-3-hydroxypropyl ester] |  | 0.08 µM | 0.133 µM
10 | COc1ccc(C(=O)Nc2ccc(F)c(F)c2)cc1NS(=O)(=O)NC(=O)Nc1ccc(C(=O)O)cc1 [Example 65, Benzoic Acid, 4-[[[[[[5-[[(3,4-difluorophenyl)amino]carbonyl]-2-methoxyphenyl]amino]sulfonyl]amino]carbonyl]amino]] |  | 0.03 µM | 0.273 µM
11 | COc1ccc(NC(=O)NS(=O)(=O)Nc2cc(C(=O)Nc3ccc(F)c(F)c3)ccc2OC)cc1 [Example 66, Benzamide, N-(3,4-difluorophenyl)-4-methoxy-3-[[[[[(4-methoxyphenyl)-amino]carbonyl]amino]sulfonyl]amino]] |  | 0.051 µM | 0.225 µM

Results, then the compound that gave them:

Row | melting point | IC50 [1] | IC50 (human 15-LO) | SMILES
12 |  | 0.009 µM | 0.014 µM | CCCCOC(=O)NS(=O)(=O)Nc1cc(-c2cc3cc(F)c(F)cc3[nH]2)ccc1OC [Example 21, Carbamic Acid, [[[5-(5,6-difluoro-IH-indol-2-yl)-2-methoxyphenyl]amino]-sulfonyl]-, Butyl Ester]
13 |  | 0.025 µM | 0.025 µM | COc1ccc(-c2cc3cc(F)c(F)cc3[nH]2)cc1NS(=O)(=O)NC(=O)OCC(C)C [Example 22, Carbamic Acid, [[[5-(5,6-difluoro-IH-indol-2-yl)-2-methoxyphenyl]amino]-sulfonyl]-, 2-methylpropyl ester]
14 |  | 0.011 µM | 0.033 µM | COc1ccc(-c2cc3cc(F)c(F)cc3[nH]2)cc1NS(=O)(=O)NC(=O)Nc1cc(Cl)cc(Cl)c1 [Example 24]
15 |  | 0.015 µM | 0.034 µM | CCOC(=O)NS(=O)(=O)Nc1cc(-c2cc3cc(F)c(F)cc3[nH]2)ccc1OC [Example 25, Carbamic Acid, [[[5-(5,6-difluoro-1H-indol-2-yl)-2-methoxyphenyl]amino]-sulfonyl]-, ethyl ester]
16 |  | 0.023 µM | 0.044 µM | COc1ccc(-c2cc3cc(F)c(F)cc3[nH]2)cc1NS(=O)(=O)NC(=O)Nc1ccc(Cl)cc1 [Example 27, Urea, N-(4-chlor phenyl)-N′-[[[5-(5,6-difluoro-IH-indol-2-yl)-2-methoxyphenyl]amino]sulfonyl]]
17 |  | 0.013 µM | 0.013 µM | CNS(=O)(=O)Nc1cc(C(=O)Nc2ccc(F)c(F)c2)ccc1OC [Example 38, Benzamide, N-(3,4-difluorophenyl)-4-methoxy-3-[[(methylamino)-sulfonyl]amino]]
18 |  | 0.007 µM | 0.015 µM | COc1ccc(-c2cc3cc(F)c(F)cc3[nH]2)cc1NS(=O)(=O)NC(=O)OCCc1ccccc1 [Example 40, Carbamic Acid, [[[5-(5,6-difluoro-IH-indol-2-yl)-2-methoxyphenyl]amino]-sulfonyl]-2-phenylethyl ester]
19 |  | 0.013 µM | 0.069 µM | COc1ccc(C(=O)Nc2ccc(F)c(F)c2)cc1NS(=O)(=O)NC(=O)OCCc1ccccc1 [Example 41]
20 |  | 0.017 µM | 0.03 µM | COC(=O)COC(=O)NS(=O)(=O)Nc1cc(-c2cc3cc(F)c(F)cc3[nH]2)ccc1OC [Example 43, Acetic Acid, [[[[[[5-(5,6-difluoro-1H-indol-2-yl)-2-methoxyphenyl]amino]-sulfonyl]amino]carbonyl]oxy]-, Methyl ester]
21 |  | 0.013 µM | 0.024 µM | COc1ccc(C(=O)Nc2ccc(F)c(F)c2)cc1NS(=O)(=O)NC(=O)Nc1ccc(C(C)(C)C)cc1 [Example 59, Benzamide, N-(3,4-difluorophenyl)-3-[[[[[[4-(1,1-dimethylethyl)phenyl]-amino]carbonyl]amino]sulfonyl]amino]-4-methoxy]
